Test results as given in article PMC12586182 (Frontiers in Oncology, 2025).

What was measured:
Assay in all cases: Kinase panel profiling at 1 µmol/L (mobility shift assay, Carna)
Format in all cases: biochemical
Conditions in all cases: 1 µmol/L of BTK inhibitor
CHK2 = target: T1, CHK2 (Homo sapiens, UniProt O96017)
T1 construct: purchased Carna Biosciences

MARK3 = target: T2, MARK3 (Homo sapiens, UniProt P27448)
T2 construct: purchased Carna Biosciences

PEK = target: T3, PEK (Homo sapiens, UniProt Q9NZJ5)
T3 construct: purchased Carna Biosciences
T3 sequence (Q9NZJ5 30-1116): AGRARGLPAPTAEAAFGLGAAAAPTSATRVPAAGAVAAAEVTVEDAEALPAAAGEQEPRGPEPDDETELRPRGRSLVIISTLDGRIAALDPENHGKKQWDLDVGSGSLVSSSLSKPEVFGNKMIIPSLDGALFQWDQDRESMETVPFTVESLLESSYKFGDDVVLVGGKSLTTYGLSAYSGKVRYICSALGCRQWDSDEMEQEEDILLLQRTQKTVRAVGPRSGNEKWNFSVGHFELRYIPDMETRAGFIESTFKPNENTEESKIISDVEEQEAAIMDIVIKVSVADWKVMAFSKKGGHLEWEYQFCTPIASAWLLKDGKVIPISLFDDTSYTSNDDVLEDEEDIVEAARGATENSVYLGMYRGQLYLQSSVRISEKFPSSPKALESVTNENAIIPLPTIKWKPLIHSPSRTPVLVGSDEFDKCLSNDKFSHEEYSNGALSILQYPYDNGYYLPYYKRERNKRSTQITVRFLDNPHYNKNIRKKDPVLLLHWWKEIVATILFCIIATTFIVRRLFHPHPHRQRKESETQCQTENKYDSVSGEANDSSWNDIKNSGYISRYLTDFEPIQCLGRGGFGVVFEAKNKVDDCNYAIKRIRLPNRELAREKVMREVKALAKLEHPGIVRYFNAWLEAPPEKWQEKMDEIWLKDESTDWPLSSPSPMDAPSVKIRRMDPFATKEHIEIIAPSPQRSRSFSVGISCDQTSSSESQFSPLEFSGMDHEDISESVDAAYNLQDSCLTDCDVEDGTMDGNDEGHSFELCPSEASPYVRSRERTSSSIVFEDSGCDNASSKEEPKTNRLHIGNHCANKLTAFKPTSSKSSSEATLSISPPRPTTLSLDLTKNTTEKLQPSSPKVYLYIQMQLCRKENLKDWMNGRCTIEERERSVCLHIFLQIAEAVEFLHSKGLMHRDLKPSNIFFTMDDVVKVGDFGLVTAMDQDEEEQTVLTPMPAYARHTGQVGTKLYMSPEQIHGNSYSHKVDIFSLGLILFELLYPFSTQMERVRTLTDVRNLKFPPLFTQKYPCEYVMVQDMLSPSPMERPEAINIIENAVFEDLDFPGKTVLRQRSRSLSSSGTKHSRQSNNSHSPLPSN

RSK3 = target: T4, RSK3 (Homo sapiens, UniProt Q15349)
T4 construct: purchased Carna Biosciences
T4 sequence (Q15349 whole entry): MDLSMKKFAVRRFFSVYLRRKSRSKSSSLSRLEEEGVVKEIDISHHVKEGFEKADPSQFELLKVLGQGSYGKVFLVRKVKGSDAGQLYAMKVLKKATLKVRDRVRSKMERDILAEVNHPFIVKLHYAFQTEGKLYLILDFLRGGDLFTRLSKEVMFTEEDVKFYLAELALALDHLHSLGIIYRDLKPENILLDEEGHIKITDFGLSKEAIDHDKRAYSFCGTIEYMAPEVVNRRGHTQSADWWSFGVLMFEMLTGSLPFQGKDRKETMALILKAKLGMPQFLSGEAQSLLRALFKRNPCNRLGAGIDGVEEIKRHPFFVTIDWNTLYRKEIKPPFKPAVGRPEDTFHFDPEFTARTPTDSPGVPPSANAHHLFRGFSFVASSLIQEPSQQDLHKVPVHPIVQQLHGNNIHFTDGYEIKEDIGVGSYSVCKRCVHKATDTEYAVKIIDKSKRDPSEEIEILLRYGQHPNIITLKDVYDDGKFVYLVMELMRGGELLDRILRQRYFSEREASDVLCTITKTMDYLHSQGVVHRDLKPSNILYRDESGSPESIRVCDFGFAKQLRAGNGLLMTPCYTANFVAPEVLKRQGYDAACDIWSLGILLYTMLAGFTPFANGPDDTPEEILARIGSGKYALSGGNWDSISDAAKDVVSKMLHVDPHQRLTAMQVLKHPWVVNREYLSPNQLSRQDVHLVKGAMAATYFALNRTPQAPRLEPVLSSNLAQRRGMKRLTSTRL

TNK1 = target: T5, TNK1 (Homo sapiens, UniProt Q13470)
T5 construct: purchased Carna Biosciences
T5 sequence (Q13470 1-666): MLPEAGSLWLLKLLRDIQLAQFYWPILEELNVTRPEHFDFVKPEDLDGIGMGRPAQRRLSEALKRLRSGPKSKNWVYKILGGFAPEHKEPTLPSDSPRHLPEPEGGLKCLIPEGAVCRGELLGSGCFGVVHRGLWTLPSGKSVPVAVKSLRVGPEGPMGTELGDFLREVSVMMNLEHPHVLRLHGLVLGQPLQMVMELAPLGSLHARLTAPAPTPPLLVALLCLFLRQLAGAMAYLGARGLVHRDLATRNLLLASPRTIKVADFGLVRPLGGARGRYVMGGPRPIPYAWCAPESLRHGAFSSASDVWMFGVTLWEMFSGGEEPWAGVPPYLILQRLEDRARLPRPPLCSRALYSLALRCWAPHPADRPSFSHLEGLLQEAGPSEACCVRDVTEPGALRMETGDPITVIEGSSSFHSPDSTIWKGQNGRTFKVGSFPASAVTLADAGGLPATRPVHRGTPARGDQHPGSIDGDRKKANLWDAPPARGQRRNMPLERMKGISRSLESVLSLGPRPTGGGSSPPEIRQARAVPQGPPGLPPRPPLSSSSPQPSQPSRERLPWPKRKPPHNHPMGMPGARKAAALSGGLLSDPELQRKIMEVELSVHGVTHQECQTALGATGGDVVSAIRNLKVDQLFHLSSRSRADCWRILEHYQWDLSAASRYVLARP

EPHA8 = target: T6, EPHA8 (Homo sapiens, UniProt P29322)
T6 construct: purchased Carna Biosciences
T6 sequence (P29322 28-1005): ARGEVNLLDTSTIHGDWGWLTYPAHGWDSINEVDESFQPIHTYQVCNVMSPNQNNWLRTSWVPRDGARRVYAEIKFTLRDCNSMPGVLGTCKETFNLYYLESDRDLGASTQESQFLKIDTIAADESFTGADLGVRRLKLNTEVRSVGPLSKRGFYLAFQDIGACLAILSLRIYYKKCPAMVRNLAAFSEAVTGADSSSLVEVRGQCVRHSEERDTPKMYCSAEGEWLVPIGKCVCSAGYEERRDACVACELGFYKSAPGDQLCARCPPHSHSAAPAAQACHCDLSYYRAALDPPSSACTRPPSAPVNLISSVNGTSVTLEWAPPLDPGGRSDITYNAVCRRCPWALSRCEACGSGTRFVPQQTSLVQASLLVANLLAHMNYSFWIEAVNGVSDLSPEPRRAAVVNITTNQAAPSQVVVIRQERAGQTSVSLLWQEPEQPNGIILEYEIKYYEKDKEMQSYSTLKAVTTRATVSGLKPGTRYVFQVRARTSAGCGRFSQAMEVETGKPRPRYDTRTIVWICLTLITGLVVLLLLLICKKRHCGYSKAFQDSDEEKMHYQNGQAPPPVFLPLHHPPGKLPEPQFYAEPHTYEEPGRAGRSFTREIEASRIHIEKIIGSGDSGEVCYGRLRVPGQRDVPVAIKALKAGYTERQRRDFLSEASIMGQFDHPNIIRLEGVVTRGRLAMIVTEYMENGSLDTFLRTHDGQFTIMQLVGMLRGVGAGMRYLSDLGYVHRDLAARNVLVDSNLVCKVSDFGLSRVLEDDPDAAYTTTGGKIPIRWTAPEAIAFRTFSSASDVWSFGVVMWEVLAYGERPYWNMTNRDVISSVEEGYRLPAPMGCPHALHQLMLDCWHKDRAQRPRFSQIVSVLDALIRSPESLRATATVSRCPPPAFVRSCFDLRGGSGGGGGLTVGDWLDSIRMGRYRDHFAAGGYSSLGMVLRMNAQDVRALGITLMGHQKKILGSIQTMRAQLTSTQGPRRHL

T1 sequence (O96017 whole entry): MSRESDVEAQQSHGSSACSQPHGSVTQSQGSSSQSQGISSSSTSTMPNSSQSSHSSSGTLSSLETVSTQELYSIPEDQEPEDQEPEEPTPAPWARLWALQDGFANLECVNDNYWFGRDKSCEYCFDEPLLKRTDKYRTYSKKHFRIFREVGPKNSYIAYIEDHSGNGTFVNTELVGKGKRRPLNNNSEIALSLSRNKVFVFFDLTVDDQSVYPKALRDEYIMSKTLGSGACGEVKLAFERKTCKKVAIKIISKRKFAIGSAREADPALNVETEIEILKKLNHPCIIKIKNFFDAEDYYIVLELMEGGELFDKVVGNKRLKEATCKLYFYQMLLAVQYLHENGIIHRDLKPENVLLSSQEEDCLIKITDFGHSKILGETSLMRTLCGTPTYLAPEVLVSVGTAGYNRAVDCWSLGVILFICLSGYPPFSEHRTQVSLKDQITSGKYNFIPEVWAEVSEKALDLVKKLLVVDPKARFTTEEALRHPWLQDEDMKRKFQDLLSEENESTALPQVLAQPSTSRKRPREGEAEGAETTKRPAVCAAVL
T2 sequence (P27448 whole entry): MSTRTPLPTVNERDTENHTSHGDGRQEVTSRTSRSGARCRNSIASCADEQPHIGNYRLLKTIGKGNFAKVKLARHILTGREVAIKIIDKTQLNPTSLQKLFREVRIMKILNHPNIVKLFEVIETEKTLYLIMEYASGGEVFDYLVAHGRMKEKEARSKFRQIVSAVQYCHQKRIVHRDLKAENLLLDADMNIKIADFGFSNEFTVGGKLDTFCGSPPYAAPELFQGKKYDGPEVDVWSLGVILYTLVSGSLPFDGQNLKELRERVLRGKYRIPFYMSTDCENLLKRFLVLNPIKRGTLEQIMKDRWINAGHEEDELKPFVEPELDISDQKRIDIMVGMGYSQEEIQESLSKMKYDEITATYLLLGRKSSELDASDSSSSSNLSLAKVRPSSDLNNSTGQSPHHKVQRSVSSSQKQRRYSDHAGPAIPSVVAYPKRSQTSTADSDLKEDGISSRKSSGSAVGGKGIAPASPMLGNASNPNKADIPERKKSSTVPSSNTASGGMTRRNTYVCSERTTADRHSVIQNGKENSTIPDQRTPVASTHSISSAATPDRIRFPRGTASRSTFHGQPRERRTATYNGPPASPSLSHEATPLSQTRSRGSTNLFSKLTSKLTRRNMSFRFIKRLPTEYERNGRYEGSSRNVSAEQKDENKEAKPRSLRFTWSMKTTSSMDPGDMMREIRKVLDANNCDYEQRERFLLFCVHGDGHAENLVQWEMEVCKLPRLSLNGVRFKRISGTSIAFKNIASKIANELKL

With `O=C(c1ccc(Oc2ccccc2)cc1Cl)c1c[nH]c2ncnc(N[C@@H]3CC[C@@H](CO)OC3)c12` [nemtabrutinib] the “Percentage inhibition of kinase enzyme activity” value (“Percentage inhibition” below) (CHK2) was 49.89%, the “Percentage inhibition” value (MARK3) was 10.97% and the “Percentage inhibition” value (PEK) was 49.66%. For the same compound, the “Percentage inhibition” value (RSK3) was 19.54%, the “Percentage inhibition” value (TNK1) was 75.62% and the “Percentage inhibition” value (EPHA8) was 50.84%.
With `CC#CC(=O)N1CCC[C@H]1c1nc(-c2ccc(C(=O)Nc3ccccn3)cc2)c2c(N)nccn12` [acalabrutinib] the “Percentage inhibition” value (CHK2) was -5.77%, the “Percentage inhibition” value (MARK3) was -2.57% and the “Percentage inhibition” value (PEK) was 8.39%. For the same compound, the “Percentage inhibition” value (RSK3) was 1.13%, the “Percentage inhibition” value (TNK1) was -1.80% and the “Percentage inhibition” value (EPHA8) was 6.51%.
In the case of `COc1ccc(F)cc1C(=O)NCc1ccc(-c2nn([C@@H](C)C(F)(F)F)c(N)c2C(N)=O)cc1` [pirtobrutinib], the “Percentage inhibition” value (CHK2) is reported as 7.28%, the “Percentage inhibition” value (MARK3) is reported as 5.64% and the “Percentage inhibition” value (PEK) is reported as -9.35%. For the same compound, the “Percentage inhibition” value (RSK3) was 1.65%, the “Percentage inhibition” value (TNK1) was 3.07% and the “Percentage inhibition” value (EPHA8) was -19.48%.
With `C=CC(=O)N1CCC([C@@H]2CCNc3c(C(N)=O)c(-c4ccc(Oc5ccccc5)cc4)nn32)CC1` [zanubrutinib] the “Percentage inhibition” value (EPHA8) was -2.10%.
For `C=CC(=O)N1CCC[C@@H](n2nc(-c3ccc(Oc4ccccc4)cc3)c3c(N)ncnc32)C1` [ibrutinib], the “Percentage inhibition” value (CHK2) was 14.14%, the “Percentage inhibition” value (MARK3) was -5.88% and the “Percentage inhibition” value (PEK) was 7.47%. The “Percentage inhibition” value (RSK3) was 8.80%, the “Percentage inhibition” value (TNK1) was 6.17% and the “Percentage inhibition” value (EPHA8) was 54.68%.
